Measurements taken from ChEMBL document CHEMBL4706479, “Novel Aryloxyethyl Derivatives of 1-(1-Benzoylpiperidin-4-yl)methanamine as the Extracellular Regulated Kinases 1/2 (ERK1/2) Phosphorylation-Preferring Serotonin 5-HT Receptor-Biased Agonists with Robust Antidepressant-like Activity” (J Med Chem, 2019).
Converted amounts (≈) assume the structure as drawn.

Experiments:
[1] = biological target: Muscarinic acetylcholine receptor M1 (Homo sapiens) (UniProt P11229); test: Displacement of [3H]-scopolamine from human recombinant muscarinic M1 receptor stably expressed in CHO-K1 cell membranes at 1 uM measured after 120 mins by microbeta2 scintillation counting analysis relative to control; details: Cell membrane
[2] = biological target: CYP2D6 (Homo sapiens, UniProt P10635); test: Inhibition of human recombinant CYP2D6 at 10 uM relative to control; format: ADME
[3] = biological target: Alpha-1B adrenergic receptor (Homo sapiens) (UniProt P35368); test: Inhibition of adrenergic alpha-1B receptor (unknown origin) at 1 uM relative to control
[4] = biological target: D(2) dopamine receptor (Homo sapiens, UniProt P14416); test: Inhibition of dopamine D2S receptor (unknown origin) at 1 uM relative to control
[5] = biological target: Tyrosine-protein kinase Lck (Homo sapiens) (UniProt P06239); test: Inhibition of LCK (unknown origin) at 10 uM relative to control
[6] = Toxicity in Wistar rat assessed as effect on flat body posture at 0.04 to […], po observed after 60 mins post treatment; format: organism-based; details: in vivo, 1 h, dose 0.04-2.5 mg/kg
[7] = biological target: Histamine H1 receptor (Homo sapiens) (UniProt P35367); test: Inhibition of histamine H1 receptor (unknown origin) at 10 uM relative to control
[8] = biological target: 5-hydroxytryptamine receptor 2B (Homo sapiens) (UniProt P41595); test: Inhibition of 5-HT2B (unknown origin) at 10 uM relative to control
[9] = biological target: T1, hERG (KCNH2) (Homo sapiens, UniProt Q12809); test: Displacement of [3H]-dofetilide from human ERG (unknown origin) at 10 uM relative to control; details: probe [3H]-dofetilide
[10] = biological target: D(3) dopamine receptor (Homo sapiens) (UniProt P35462); test: Inhibition of dopamine D3 receptor (unknown origin) at 1 uM relative to control
[11] = biological target: MAO-A (Homo sapiens, UniProt P21397); test: Inhibition of MAO-A (unknown origin) at 10 uM relative to control
[12] = Aqueous solubility of compound in pH 7.4 PBS buffer at 200 uM; format: physicochemical
[13] = biological target: Acetylcholinesterase (Homo sapiens) (UniProt P22303); test: Inhibition of AChE (unknown origin) at 10 uM relative to control
[14] = biological target: 5-hydroxytryptamine receptor 2A (Homo sapiens) (UniProt P28223); test: Inhibition of 5-HT2A (unknown origin) at 10 uM relative to control
[15] = biological target: T1, hERG (KCNH2); test: Inhibition of human ERG at 0.1 uM by patch clamp technique relative to control
[16] = biological target: cGMP-inhibited 3',5'-cyclic phosphodiesterase 3A (Homo sapiens) (UniProt Q14432); test: Inhibition of PDE3A (unknown origin) at 10 uM relative to control

T1 sequence (Q12809 whole entry): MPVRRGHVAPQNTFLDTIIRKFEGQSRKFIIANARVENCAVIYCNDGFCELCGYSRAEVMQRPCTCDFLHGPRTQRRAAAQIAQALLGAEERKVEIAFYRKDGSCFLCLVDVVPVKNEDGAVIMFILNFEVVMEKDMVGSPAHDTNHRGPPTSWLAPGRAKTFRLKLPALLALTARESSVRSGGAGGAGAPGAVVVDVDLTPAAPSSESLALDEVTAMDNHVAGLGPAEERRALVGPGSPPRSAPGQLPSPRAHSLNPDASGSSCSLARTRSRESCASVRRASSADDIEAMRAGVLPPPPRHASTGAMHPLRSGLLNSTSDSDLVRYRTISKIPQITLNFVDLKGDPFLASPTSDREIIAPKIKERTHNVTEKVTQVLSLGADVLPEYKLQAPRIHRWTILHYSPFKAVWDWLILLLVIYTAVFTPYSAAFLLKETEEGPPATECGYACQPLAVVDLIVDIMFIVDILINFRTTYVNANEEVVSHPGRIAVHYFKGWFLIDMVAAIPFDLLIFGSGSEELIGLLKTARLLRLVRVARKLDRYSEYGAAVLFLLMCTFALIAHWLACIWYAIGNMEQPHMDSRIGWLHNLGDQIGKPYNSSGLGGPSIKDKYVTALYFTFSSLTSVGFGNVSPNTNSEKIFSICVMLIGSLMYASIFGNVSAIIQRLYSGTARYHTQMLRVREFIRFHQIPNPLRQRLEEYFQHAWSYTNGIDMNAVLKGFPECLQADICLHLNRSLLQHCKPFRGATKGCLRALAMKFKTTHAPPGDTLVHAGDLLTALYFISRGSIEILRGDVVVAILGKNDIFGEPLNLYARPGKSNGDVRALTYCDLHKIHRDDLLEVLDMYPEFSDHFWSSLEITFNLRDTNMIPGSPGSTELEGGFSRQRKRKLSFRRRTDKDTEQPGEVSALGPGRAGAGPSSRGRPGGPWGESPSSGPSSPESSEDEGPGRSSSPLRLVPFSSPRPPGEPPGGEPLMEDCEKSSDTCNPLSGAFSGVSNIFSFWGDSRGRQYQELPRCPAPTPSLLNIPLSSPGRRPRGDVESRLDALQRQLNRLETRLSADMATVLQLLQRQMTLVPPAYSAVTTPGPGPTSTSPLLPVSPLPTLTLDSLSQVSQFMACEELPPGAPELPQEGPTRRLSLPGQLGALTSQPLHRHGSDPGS
Chain of Alpha-1B adrenergic receptor (Homo sapiens) (P35368 whole entry): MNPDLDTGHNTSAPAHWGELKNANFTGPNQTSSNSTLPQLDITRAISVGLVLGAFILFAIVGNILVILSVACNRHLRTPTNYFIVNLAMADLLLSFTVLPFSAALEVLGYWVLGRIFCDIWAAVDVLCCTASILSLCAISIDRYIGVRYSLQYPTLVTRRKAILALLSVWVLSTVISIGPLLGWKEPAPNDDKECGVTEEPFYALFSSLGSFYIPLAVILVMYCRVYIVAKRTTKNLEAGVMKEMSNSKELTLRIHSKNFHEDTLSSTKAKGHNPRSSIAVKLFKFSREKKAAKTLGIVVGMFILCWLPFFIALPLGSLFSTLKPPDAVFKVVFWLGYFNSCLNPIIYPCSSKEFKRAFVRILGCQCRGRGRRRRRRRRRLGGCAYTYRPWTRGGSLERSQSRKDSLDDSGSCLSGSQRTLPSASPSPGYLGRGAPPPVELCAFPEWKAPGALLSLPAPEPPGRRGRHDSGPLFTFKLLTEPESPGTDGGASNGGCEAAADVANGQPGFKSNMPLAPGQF
Chain of CYP2D6 (P10635 whole entry): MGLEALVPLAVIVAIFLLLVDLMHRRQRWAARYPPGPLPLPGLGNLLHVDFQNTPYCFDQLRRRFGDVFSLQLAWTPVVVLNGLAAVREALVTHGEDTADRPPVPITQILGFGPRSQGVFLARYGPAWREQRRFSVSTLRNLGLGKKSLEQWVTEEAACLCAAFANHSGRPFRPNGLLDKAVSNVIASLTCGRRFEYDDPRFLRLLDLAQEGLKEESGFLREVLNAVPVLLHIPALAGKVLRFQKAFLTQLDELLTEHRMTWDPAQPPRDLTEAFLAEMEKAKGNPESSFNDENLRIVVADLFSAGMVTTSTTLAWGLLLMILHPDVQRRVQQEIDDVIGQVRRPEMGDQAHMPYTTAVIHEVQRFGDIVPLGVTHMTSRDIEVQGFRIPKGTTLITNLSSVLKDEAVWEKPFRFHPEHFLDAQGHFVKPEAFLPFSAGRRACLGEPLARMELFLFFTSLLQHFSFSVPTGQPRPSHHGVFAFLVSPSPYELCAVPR
Chain of 5-hydroxytryptamine receptor 2A (Homo sapiens) (P28223 whole entry): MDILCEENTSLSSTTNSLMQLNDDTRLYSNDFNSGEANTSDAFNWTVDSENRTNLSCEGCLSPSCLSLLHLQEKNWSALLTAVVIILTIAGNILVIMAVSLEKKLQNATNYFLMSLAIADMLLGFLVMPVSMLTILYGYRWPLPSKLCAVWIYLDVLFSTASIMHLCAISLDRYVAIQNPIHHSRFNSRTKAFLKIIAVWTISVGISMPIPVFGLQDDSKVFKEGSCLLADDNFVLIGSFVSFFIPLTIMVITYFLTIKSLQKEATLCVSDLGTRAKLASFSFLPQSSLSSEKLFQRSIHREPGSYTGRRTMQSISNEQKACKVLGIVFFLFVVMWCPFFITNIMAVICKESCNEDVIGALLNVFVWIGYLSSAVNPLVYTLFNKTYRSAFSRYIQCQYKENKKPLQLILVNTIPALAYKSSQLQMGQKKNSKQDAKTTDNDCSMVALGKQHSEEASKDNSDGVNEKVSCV
Chain of D(2) dopamine receptor (P14416 whole entry): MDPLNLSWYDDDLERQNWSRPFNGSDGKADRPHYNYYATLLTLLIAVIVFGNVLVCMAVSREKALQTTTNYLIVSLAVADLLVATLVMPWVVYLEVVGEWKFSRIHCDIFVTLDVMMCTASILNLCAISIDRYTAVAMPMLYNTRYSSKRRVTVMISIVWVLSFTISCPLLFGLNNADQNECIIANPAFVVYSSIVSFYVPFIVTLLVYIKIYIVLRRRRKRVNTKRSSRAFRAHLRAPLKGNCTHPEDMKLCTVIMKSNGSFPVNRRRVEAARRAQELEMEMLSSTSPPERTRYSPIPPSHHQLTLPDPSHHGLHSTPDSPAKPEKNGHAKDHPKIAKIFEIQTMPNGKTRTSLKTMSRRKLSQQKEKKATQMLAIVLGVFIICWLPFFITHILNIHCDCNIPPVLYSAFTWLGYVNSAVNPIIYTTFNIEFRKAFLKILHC
Chain of Tyrosine-protein kinase Lck (Homo sapiens) (P06239 2-509 limits assumed): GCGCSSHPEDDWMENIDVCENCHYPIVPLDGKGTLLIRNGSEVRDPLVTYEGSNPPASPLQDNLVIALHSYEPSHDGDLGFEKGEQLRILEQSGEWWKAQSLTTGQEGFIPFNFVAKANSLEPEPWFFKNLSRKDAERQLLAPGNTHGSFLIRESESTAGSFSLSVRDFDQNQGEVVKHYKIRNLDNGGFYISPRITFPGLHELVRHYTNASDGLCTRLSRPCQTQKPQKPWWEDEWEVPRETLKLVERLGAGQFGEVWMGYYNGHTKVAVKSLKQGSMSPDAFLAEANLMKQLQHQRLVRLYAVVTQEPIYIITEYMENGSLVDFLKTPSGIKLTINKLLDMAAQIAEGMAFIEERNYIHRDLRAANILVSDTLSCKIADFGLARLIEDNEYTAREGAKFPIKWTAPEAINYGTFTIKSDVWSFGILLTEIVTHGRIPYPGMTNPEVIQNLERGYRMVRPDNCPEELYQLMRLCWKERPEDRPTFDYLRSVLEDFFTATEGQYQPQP
Chain of 5-hydroxytryptamine receptor 2B (Homo sapiens) (P41595 whole entry): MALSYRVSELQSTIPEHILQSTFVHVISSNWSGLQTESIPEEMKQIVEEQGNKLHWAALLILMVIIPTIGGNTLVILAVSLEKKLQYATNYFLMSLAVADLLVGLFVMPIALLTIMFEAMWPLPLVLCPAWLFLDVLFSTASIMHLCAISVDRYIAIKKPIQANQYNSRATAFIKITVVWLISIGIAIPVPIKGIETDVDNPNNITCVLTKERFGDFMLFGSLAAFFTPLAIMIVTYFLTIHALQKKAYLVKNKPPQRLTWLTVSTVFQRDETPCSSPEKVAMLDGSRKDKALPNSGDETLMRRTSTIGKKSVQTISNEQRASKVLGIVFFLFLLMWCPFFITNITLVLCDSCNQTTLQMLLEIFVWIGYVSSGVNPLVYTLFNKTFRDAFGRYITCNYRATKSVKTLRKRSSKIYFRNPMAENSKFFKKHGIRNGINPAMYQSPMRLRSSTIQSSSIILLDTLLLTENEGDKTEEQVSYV
Chain of Acetylcholinesterase (Homo sapiens) (P22303 whole entry): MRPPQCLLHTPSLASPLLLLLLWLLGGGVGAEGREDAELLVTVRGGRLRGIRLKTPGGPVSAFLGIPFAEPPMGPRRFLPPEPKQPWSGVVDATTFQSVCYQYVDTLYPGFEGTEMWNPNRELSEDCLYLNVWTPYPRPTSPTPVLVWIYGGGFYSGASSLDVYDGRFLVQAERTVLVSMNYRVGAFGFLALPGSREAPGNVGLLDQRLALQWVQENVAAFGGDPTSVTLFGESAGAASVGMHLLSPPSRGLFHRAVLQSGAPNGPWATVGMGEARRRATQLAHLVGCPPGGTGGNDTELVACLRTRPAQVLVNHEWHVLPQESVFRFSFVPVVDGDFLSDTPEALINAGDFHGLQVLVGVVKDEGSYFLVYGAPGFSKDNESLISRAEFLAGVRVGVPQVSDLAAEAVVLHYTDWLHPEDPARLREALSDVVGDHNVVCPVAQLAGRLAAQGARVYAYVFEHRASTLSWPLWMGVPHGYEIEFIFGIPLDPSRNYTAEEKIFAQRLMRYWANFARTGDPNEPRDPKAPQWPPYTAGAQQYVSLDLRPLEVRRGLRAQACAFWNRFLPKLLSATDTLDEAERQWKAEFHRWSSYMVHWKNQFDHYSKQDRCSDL

**Q.** For `O=C(c1ccc(F)c(Cl)c1)N1CCC(F)(CNCCOc2ccccn2)CC1`, which Activity [1] is on record?
**A.** < 50%

**Q.** What about the inhibition at 10 µM [2] of the same molecule?
**A.** 15.9%

**Q.** What about the inhibition [3] of the same molecule?
**A.** 32.2%

**Q.** And the inhibition [4]?
**A.** 9.5%

**Q.** And the inhibition [5]?
**A.** 18.2%

**Q.** And the Activity [6]?
**A.** Non-Toxic

**Q.** And the inhibition [7]?
**A.** -0.5%

**Q.** And the inhibition [8]?
**A.** 39.7%

**Q.** And the inhibition at 10 µM [9]?
**A.** 16.2%

**Q.** What about the inhibition [10] of the same molecule?
**A.** 39.1%

**Q.** And the inhibition at 10 µM [11]?
**A.** -3.6%

**Q.** What about the solubility at 200 µM [12] of the same molecule?
**A.** 192 µM (≈ 78.8 µg/mL)

**Q.** And the inhibition [13]?
**A.** -2.9%

**Q.** And the inhibition [14]?
**A.** 9%

**Q.** What about the inhibition at 0.1 µM [15] of the same molecule?
**A.** 0.1%

**Q.** And the inhibition [16]?
**A.** -3.9%
